Reference: ChEMBL document CHEMBL5252587, “Structure-activity relationship study of antitrypanosomal analogues of gibbilimbol B using multivariate analysis and computation-aided drug design” (Bioorg Med Chem Lett, 2023)

Columns and labels:
Trypanosoma cruzi = assay: Antitrypanosomal activity against Trypanosoma cruzi trypomastigotes assessed as parasite growth inhibition; format: functional, organism-based
[1] = Selectivity index, ratio of CC50 for cytotoxicity against mouse NCTC Fibroblast cells assessed as inhibition of cell growth to EC50 for antitrypanosomal activity against Trypanosoma cruzi trypomastigotes assessed as parasite growth inhibition; format: toxicity, cell-based; details: read-out: Ratio CC50/EC50
Fibroblast = assay: Cytotoxicity against mouse NCTC Fibroblast cells assessed as inhibition of cell growth; format: functional
[2] = Trypanosoma cruzi, read-out: EC50

| EC50 (Trypanosoma cruzi; [2]) | EC50 (Trypanosoma cruzi) | Compound | selectivity ratio [1] | CC50 (Fibroblast) |
| --- | --- | --- | --- | --- |
| 22 µM |  | CCCCC(CC)CNC(=O)c1ccc([N+](=O)[O-])cc1 (centres undefined) | > 9.1 | > 200 µM |
| 11.7 µM |  | CCC/C=C/CCCOC(=O)c1ccc(C)cc1 | > 17.1 | > 200 µM |
| 24.4 µM |  | CCC/C=C/CCCNC(=O)c1ccc([N+](=O)[O-])cc1 | 6.5 | 158 µM |
| 25.9 µM |  | CCC/C=C/CCCNC(=O)c1ccc(OC)cc1 | > 7.7 | > 200 µM |
| 20.8 µM |  | CCC/C=C/CCCOC(=O)c1ccc(F)cc1 | > 9.6 | > 200 µM |
| 37.7 µM |  | CCC/C=C/CCCNC(=O)c1ccc(C)cc1 | > 5.3 | > 200 µM |
| 7.7 µM |  | CCC/C=C/CCCNC(=O)c1ccc(C(C)(C)C)cc1 | > 26 | > 200 µM |
| 71.4 µM |  | CCC/C=C/CCCNC(=O)c1ccc(F)cc1 | > 2.8 | > 200 µM |
| 28.7 µM |  | CCC/C=C/CCCNC(=O)c1ccc(Cl)cc1 | > 7 | > 200 µM |
| 19.8 µM |  | CCC/C=C/CCCOC(=O)c1ccc(Cl)cc1 | > 10.1 | > 200 µM |
| 71.3 µM |  | CCC/C=C/CCCNC(=O)c1ccccc1 | > 2.8 | > 200 µM |
| 5.6 µM |  | CCC/C=C/CCCOC(=O)c1ccc([N+](=O)[O-])cc1 | > 35.1 | > 200 µM |

The next lines start with the compound.

| Compound | EC50 (Trypanosoma cruzi; [2]) | EC50 (Trypanosoma cruzi) | selectivity ratio [1] | CC50 (Fibroblast) |
| --- | --- | --- | --- | --- |
| CCCCC(CC)COC(=O)c1ccc(Cl)cc1 (centres undefined) | 15.6 µM |  | > 12.8 | > 200 µM |
| CCCCC(CC)CNC(=O)c1ccc(F)cc1 (centres undefined) | 36.6 µM |  | 4.3 | 157 µM |
| CCC/C=C/CCCOC(=O)c1ccccc1 | 77.4 µM |  | > 2.6 | > 200 µM |
| CCCCC(CC)COC(=O)c1ccc(C)cc1 (centres undefined) | 19.7 µM |  | > 10.2 | > 200 µM |
| CCC/C=C/CCCOC(=O)c1ccc(OC)cc1 | 15.6 µM |  | > 12.8 | > 200 µM |
| CCC/C=C/CCCOC(=O)c1ccc(C(C)(C)C)cc1 |  | Not Active |  | > 200 µM |
| CCCCC(CC)CNC(=O)c1ccc(C(C)(C)C)cc1 (centres undefined) |  | Not Active |  | > 200 µM |
| CCCCC(CC)CNC(=O)c1ccc(Cl)cc1 (centres undefined) | 20.7 µM |  | > 9.7 | > 200 µM |
| CCCCC(CC)COC(=O)c1ccc(F)cc1 (centres undefined) | 42.4 µM |  | > 4.7 | > 200 µM |
| CCCCC(CC)CNC(=O)c1ccc(C)cc1 (centres undefined) | 21.3 µM |  | > 9.4 | > 200 µM |
| CCCCC/C=C/CCCOC(=O)c1ccc(O)cc1 | 75.3 µM |  | > 2.7 | > 200 µM |
| CCCCC(CC)COC(=O)c1ccc(C(C)(C)C)cc1 (centres undefined) |  | Not Active |  | > 200 µM |
| CCCCC(CC)COC(=O)c1ccc([N+](=O)[O-])cc1 (centres undefined) | 11.5 µM |  | > 17.4 | > 200 µM |
| O=C(Cn1ccnc1[N+](=O)[O-])NCc1ccccc1 [BENZNIDAZOLE] |  |  | > 16 | > 200 µM |
